Results as given in article PMC6731595, “The anti-parasitic agent suramin and several of its analogues are inhibitors of the DNA binding protein Mcm10” (Open Biology, 2019).
“Also recorded” adds a separate entry of the source. Counter-ions that a name gives are not always drawn. Like-named read-outs stand apart in the source and are kept apart here.

Columns and labels:
hMcm10-ID [1] = molecular target: T1, hMcm10-ID (Homo sapiens, UniProt Q7L590); assay: ABA injection SPR competition experiment with NF023 on hMcm10-ID; type: binding; conditions: competitor at 1× KD with NF023 at 10× KD (50 μM)
T1 construct: hMcm10-ID (residues 237 to 436) were expressed in E. coli strain BL21(DE3); 6xHis (HRV 3C site) (N, cleaved yes); made in house; host or cells: E. coli BL21(DE3)
T1 sequence (Q7L590 237-436): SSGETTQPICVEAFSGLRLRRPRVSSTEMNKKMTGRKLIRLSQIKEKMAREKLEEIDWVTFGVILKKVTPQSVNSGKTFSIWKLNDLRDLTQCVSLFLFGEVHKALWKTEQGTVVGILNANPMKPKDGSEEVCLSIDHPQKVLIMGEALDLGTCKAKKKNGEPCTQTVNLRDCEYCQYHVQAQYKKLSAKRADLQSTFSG
Protocol: To explore this possibility, competition-based SPR experiments were conducted using the ABA injection method to determine if the slow binder iso-PPADS competes with the fast kinetic compound NF023 (figure 4). ABA injection allows solution A (NF023 at 10× its KD) to be injected over the surface with solution B (NF023 + competitor at 1× KD) in the same cycle. Competitive binding should result in little or no change in binding response between the A and B injections, whereas non-competitive binders are expected to produce an additive binding response.
For ABA competition SPR experiments, the CM5 chip surface was prepared as described in Materials and Methods. Solution A was prepared with 50 μM NF023 in running buffer while solution B was prepared with the competitor near its KD value (NF023 = 5 μM, suramin = 0.5 μM, and iso-PPADS = 30 μM) ± 50 μM NF023 in running buffer. Data were collected at a rate of 40 Hz and analyzed with the Biacore S200 Evaluation Software. For these experiments, hMcm10-ID was immobilized to the chip surface and NF023 at a concentration 10-fold higher than its KD. A running buffer control was performed to establish the baseline of the experiment. When buffer and NF023 were injected as solution B, there was a small decrease in RU due to slight buffer mismatch effects (Figure 5a). […] NF023, suramin, and iso-PPADS were chosen as competitors to be tested at concentrations equal to their respective KD values as determined by SPR.

hMcm10-ID [2] = molecular target: T1, hMcm10-ID; assay: Surface plasmon resonance binding kinetics on immobilized hMcm10-ID (Biacore S200); conditions: for surface plasmon resonance hMcm10-ID kd / kon: 25°C; for kon: read-out: surface plasmon resonance hMcm10-ID ka; for SPR binding kinetics (description of sensorgrams): immobilized hMcm10-ID
Protocol: SPR experiments were performed using a Biacore S200 (GE Healthcare) equipped with a research-grade CM5 sensor chip. hMcm10-ID, at a concentration of 15 µg ml^−1 in 10 mM sodium acetate, pH 4.5, […], using an amine coupling kit (GE Healthcare) to either flow cell 2 or 4 following manufacturer directions. The reference flow cell (either flow cell 1 or 3) was left untreated. All compounds were dissolved in running buffer (10 mM PBS, 150 mM NaCl, 0.005% P20, pH 7.4) prior to injection over the chip surface at a flow rate of 30 µl min^−1 and at a temperature of 25°C. Zero concentration samples were injected for double referencing. Data were collected at a rate of 40 Hz and were fitted to a simple 1 : 1 interaction model (unless otherwise noted) using the global data analysis within the Biacore S200 evaluation software.

HCT116 cells = assay: CellTiter-Glo cell viability assay, HCT116; type: cell-based, human; conditions: for IC50: Homo sapiens, HCT-116, 96 h, 4 days, intracellular ATP, mean ± s.e.m., n = 3
Protocol: Cells were cultured at 37°C and 5% CO2. […] Cells were allowed to grow for 4 days in inhibitor containing medium and cell viability was measured with the CellTiter-Glo Luminescent Cell Viability Assay (Promega G7572) following the manufacturer's instructions. Viability of each drug treatment condition was normalized to the untreated control for each cell line and fitted to the sigmoidal dose–response variable slope four parameter equation in GraphPad Prism 6.0.

hTERT RPE-1 cells = assay: CellTiter-Glo cell viability assay, hTERT RPE-1; type: cell-based; conditions: Homo sapiens, hTERT-RPE1, 96 h; 4 days, intracellular ATP; mean ± s.e.m., n = 3
Protocol: HCT116 cells were grown in McCoy's 5A medium (Corning 10-050-CV) supplemented with 10% FBS (Sigma F4135), 1% Pen Strep (Gibco 15140) and 1% L-Glutamine (Gibco 205030). hTERT RPE-1 cells were grown in DMEM/F12 medium (Gibco 11320) supplemented with 10% FBS (Sigma F4135) and 1% Pen Strep (Gibco 15140). Cells were cultured at 37°C and 5% CO2. Cells were plated at 250 cells (hTERT RPE-1) or 500 cells (HCT116) per well in white-walled 96-well plates (Costar 3610) and allowed to recover for 24 h. Stock solutions of each inhibitor were prepared in sterile 1× PBS (Gibco 14190), and further diluted in the appropriate growth medium for each cell type. Cells were allowed to grow for 4 days in inhibitor containing medium and cell viability was measured with the CellTiter-Glo Luminescent Cell Viability Assay (Promega G7572) following the manufacturer's instructions. Viability of each drug treatment condition was normalized to the untreated control for each cell line and fitted to the sigmoidal dose–response variable slope four parameter equation in GraphPad Prism 6.0.

[3] = test system: DNA replication of sperm chromatin in Xenopus egg extracts; assay: In vitro DNA replication assay in Xenopus S-phase egg extracts ([α-32P]dGTP incorporation); type: biochemical; conditions: 10, 50, 150 and 300 µM
Protocol: Xenopus egg extracts were prepared according to the method of Murray. Replication of sperm chromatin in S-phase egg extracts was monitored as previously described. Compounds identified by HTS were added to replication reactions immediately prior to addition of [α-^32P]dGTP (Perkin Elmer BLU514H250UC).
To determine whether the four remaining confirmed HTS hits affected DNA replication, in vitro replication assays were performed using Xenopus S-phase egg extracts incubated with sperm chromatin [25, 34]. DNA replication was measured in the presence of bronopol, fumarprotocetraric acid, iriginol and suramin or DMSO by the incorporation of [α-^32P]dGTP. […] For this reason, further studies focused on suramin alone.
Figure 1. Suramin inhibits DNA replication in an in vitro Xenopus replication assay. HTS hits were evaluated for inhibition of [α-^32P]dGTP incorporation into DNA using a cell-free extract prepared from Xenopus eggs at increasing concentrations (10, 50, 150 and 300 µM indicated by black triangle from right to left). No chemical (–) and DMSO were used as negative controls for replication inhibition (far left and far right lanes).

[4] = calculated from association and dissociation rate constants, 1:1 model, 6000–8000 RU, read-out: surface plasmon resonance hMcm10-ID kinetic KD

SMILES: O=C(Nc1cccc(C(=O)Nc2ccc(S(=O)(=O)O)c3cc(S(=O)(=O)O)cc(S(=O)(=O)O)c23)c1)Nc1cccc(C(=O)Nc2ccc(S(=O)(=O)O)c3cc(S(=O)(=O)O)cc(S(=O)(=O)O)c23)c1 [NF023]
- competition with NF023 for binding to hMcm10-ID (ABA SPR) (hMcm10-ID [1]): consistent with a competitive interaction
- surface plasmon resonance hMcm10-ID kd (hMcm10-ID [2]; 1:1 model, 6000–8000 RU): 1.6 ± 0.2 s^−1
- kon (hMcm10-ID [2]; 1:1 model, 6000–8000 RU): 360000 ± 2e+09 M⁻¹ s⁻¹
- Kd (hMcm10-ID [2]; [4]): 4.7 ± 0.8 µM
- SPR binding kinetics (description of sensorgrams) (hMcm10-ID [2]): rapid association and dissociation

SMILES: Cc1nc(/N=N/c2cc(S(=O)(=O)O)ccc2S(=O)(=O)O)c(COP(=O)(O)O)c(C=O)c1O [iso-PPADS, pyridoxalphosphate-6-azophenyl-2’, 5’-disulfonic acid tetrasodium salt]
- competition with NF023 for binding to hMcm10-ID (ABA SPR) (hMcm10-ID [1]): neither compound showed additive binding
- higher cytotoxicity for HCT116 cancer cells in comparison to hTERT RPE-1 cells (HCT116 cells): little cell type specificity
- selectivity = hTERT RPE-1 IC50/HCT116 IC50 (HCT116 cells): 1.5
- IC50 (HCT116 cells): 370 ± 30 µM
- IC50 (hTERT RPE-1 cells): 560 ± 55 µM
- surface plasmon resonance hMcm10-ID kd (hMcm10-ID [2]; 1:1 model, 6000–8000 RU): 0.0015 ± 0.0001 s^−1
- kon (hMcm10-ID [2]; 1:1 model, 6000–8000 RU): 47 ± 8 M⁻¹ s⁻¹
- Kd (hMcm10-ID [2]; [4]): 40 ± 9 µM
- SPR binding kinetics (description of sensorgrams) (hMcm10-ID [2]): slow on- and off-rates

SMILES: O=C(Nc1cccc(C(=O)Nc2cc(C(=O)Nc3ccc(S(=O)(=O)O)c4cc(S(=O)(=O)O)cc(S(=O)(=O)O)c34)ccc2F)c1)Nc1cccc(C(=O)Nc2cc(C(=O)Nc3ccc(S(=O)(=O)O)c4cc(S(=O)(=O)O)cc(S(=O)(=O)O)c34)ccc2F)c1 [NF157]
- higher cytotoxicity for HCT116 cancer cells in comparison to hTERT RPE-1 cells (HCT116 cells): approximately 3.5 fold
- selectivity = hTERT RPE-1 IC50/HCT116 IC50 (HCT116 cells): 3.2
- IC50 (HCT116 cells): 38 ± 1 µM
- IC50 (hTERT RPE-1 cells): 120 ± 16 µM
- surface plasmon resonance hMcm10-ID kd (hMcm10-ID [2]; 1:1 model, 6000–8000 RU): 0.0032 ± 0.0001 s^−1
- kon (hMcm10-ID [2]; 1:1 model, 6000–8000 RU): 7400 ± 600000 M⁻¹ s⁻¹
- Kd (hMcm10-ID [2]; [4]): 0.46 ± 0.05 µM
- SPR binding kinetics (description of sensorgrams) (hMcm10-ID [2]): predominantly rapid kinetics

SMILES: Cc1nc(/N=N/c2ccc(S(=O)(=O)O)cc2S(=O)(=O)O)c(COP(=O)(O)O)c(C=O)c1O [PPADS, pyridoxalphosphate-6-azophenyl-2’, 4’-disulfonic acid tetrasodium salt]
- higher cytotoxicity for HCT116 cancer cells in comparison to hTERT RPE-1 cells (HCT116 cells): little cell type specificity
- selectivity = hTERT RPE-1 IC50/HCT116 IC50 (HCT116 cells): 1.3
- IC50 (HCT116 cells): 310 ± 20 µM
- IC50 (hTERT RPE-1 cells): 400 ± 14 µM
- surface plasmon resonance hMcm10-ID kd (hMcm10-ID [2]; 1:1 model, 6000–8000 RU): 0.0013 ± 0.0001 s^−1
- kon (hMcm10-ID [2]; 1:1 model, 6000–8000 RU): 29 ± 8 M⁻¹ s⁻¹
- Kd (hMcm10-ID [2]; [4]): 57 ± 9 µM
- SPR binding kinetics (description of sensorgrams) (hMcm10-ID [2]): slow association and dissociation kinetics; also recorded: slow on and off rates

SMILES: Cc1ccc(C(=O)Nc2ccc(S(=O)(=O)O)c3cc(S(=O)(=O)O)cc(S(=O)(=O)O)c23)cc1NC(=O)c1cccc(NC(=O)Nc2cccc(C(=O)Nc3cc(C(=O)Nc4ccc(S(=O)(=O)O)c5cc(S(=O)(=O)O)cc(S(=O)(=O)O)c45)ccc3C)c2)c1 [suramin, suramin sodium salt]
- competition with NF023 for binding to hMcm10-ID (ABA SPR) (hMcm10-ID [1]): neither compound showed additive binding
- DNA replication, [α-32P]dGTP incorporation (result in words) [3]: dose-dependent decrease in replication products; also recorded: dose-dependent decrease in DNA replication
- higher cytotoxicity for HCT116 cancer cells in comparison to hTERT RPE-1 cells (HCT116 cells): approximately 3.5 fold
- selectivity = hTERT RPE-1 IC50/HCT116 IC50 (HCT116 cells): 3.7
- IC50 (HCT116 cells): 109 ± 10 µM
- IC50 (hTERT RPE-1 cells): 400 ± 22 µM
- surface plasmon resonance hMcm10-ID kd (hMcm10-ID [2]; 1:1 model, 6000–8000 RU): 0.16 ± 0.03 s^−1
- kon (hMcm10-ID [2]; 1:1 model, 6000–8000 RU): 290000 ± 7e+09 M⁻¹ s⁻¹
- Kd (hMcm10-ID [2]; 3000 RU of hMcm10-ID immobilized, read-out: SPR kinetic KD at lower surface density): 0.65 µM
- Kd (hMcm10-ID [2]; [4]): 0.57 ± 0.06 µM
- SPR binding kinetics (description of sensorgrams) (hMcm10-ID [2]): predominantly rapid kinetics
